Reference: BindingDB's records for doi:10.1021/np010194b (Kyungpook National University, 2002)
Where a SMILES comes first, the peptide text is derived from it. Bridges are numbered along the chain shown (N, C = ends).

Target: Prolyl endopeptidase (Flavobacterium meningosepticum)
Experiment: Inhibition of Flavobacterium meningosepticum PEP

CC[C@H](C)[C@H](NC(=O)[C@H](Cc1ccccc1)NC(=O)[C@@H](NC(=O)[C@H](Cc1cnc[nH]1)NC(=O)CNC(=O)CNC(=O)[C@H](Cc1ccccc1)NC(=O)[C@H](CC(C)C)NC(=O)[C@@H]1CC(=O)NCC(=O)N[C@@H](Cc2ccc(O)cc2)C(=O)N2CCC[C@H]2C(=O)N[C@@H](Cc2c[nH]c3ccccc23)C(=O)N[C@@H](Cc2c[nH]c3ccccc23)C(=O)N[C@@H](CC(=O)O)C(=O)N[C@@H](Cc2ccc(O)cc2)C(=O)N[C@@H](CCCNC(=N)N)C(=O)N1)[C@@H](C)O)C(=O)N[C@@H](CO)C(=O)N1CCC[C@H]1C(=O)O [propeptin] (GYPWWDYRDLFGGHTFISP-OH; lactam N-9)
IC50: 1100 nM
